Earlier results as cited in patent US9072718B2, “Burdock fruit extract containing arctigenin and method for producing same” (Kracie Pharma, Ltd., priority 2010, dated 2015).

Key:
[1] = stated without a test
[2] = test system: pancreas cancer cell line PANC-1; conditions: PANC-1, undernutrition condition; Non-patent document 1

SMILES	solubility in water [1]	effect on viability of tumor cells in the undernutrition condition [2]
COc1ccc(C[C@H]2COC(=O)[C@@H]2Cc2ccc(O[C@@H]3O[C@H](CO)[C@@H](O)[C@H](O)[C@H]3O)c(OC)c2)cc1OC [arctiin]	hardly soluble in water	–
COc1cc(C[C@H]2C(=O)OC[C@@H]2Cc2ccc(OC)c(OC)c2)ccc1O [arctigenin]	hardly soluble in water	effective
